Reference: patent US9580426B2, “Compounds that expand hematopoietic stem cells” (Novartis AG, priority 2008, dated 2017)

System: mPB and CB derived HSCs
Assay: Transplantation of cultured human CD34+ cells into NOD/SCID mice (engraftment)
Type: in vivo, human cells in NOD/SCID mice
Conditions: HSCs cultured at 1 micromolar, mPB 4 days, CB 21 days
Description: Transplantation of human CD34^+ cells into NOD.CB 17-Prkdc^scid mice (NOD/SCID): To assess the in vivo repopulating capacity of CD34^+ cells and their cultured progeny, uncultured CD34^+ or the progenies of cultured CD34^+ cells after 4 days (mPB) or 21 days (CB) with vehicle or a test compound were injected intravenously via the retro-orbital route into sub-lethally irradiated (3.0 Gy) 8- to 10-week-old NOD/SCID (for mPB HSC experiments) or NOD/SCIDgc−/− (for CB HSC experiments) mice. To monitor engraftment blood was drawn weekly via the retro-orbital and treated with erythrocyte lysis solution (Qiagen, Valencia, Calif.) to remove red blood cells, washed with staining media, and analyzed by flow Cytometry. Engraftment was measured by detection of anti-human CD45^+ cells in the blood. The mice are sacrificed at 10 weeks post-transplantation; BM is collected from both femurs and tibiae. BM cells are washed in staining media and stained with anti-human antibodies. Following incubation, the suspension is treated with erythrocyte lysis solution (Qiagen, Valencia, Calif.) to remove red blood cells, washed with staining media, and analyzed by flow Cytometry, as described earlier.

## CC(C)n1cnc2c(NCCc3ccc(O)cc3)nc(-c3csc4ccccc34)nc21 [Example 1, 4-(2-(2-(benzo[b]thiophen-3-yl)-9-isopropyl-9H-purin-6-ylamino)ethyl)phenol]
  percentage of human cells 10 weeks after engraftment: statistically significant increase
